Tests used:
Type in all cases: toxicity, cell-based
[1] = test system: U2OS; assay: Incucyte cell viability with U2OS; conditions: human, 10 µM, compound concentration 10 uM
[2] = test system: HEK-293T; assay: Incucyte cell viability with HEK293T; conditions: human, 10 µM, compound concentration 10 uM
[3] = test system: Fibroblast; assay: Incucyte cell viability with human fibroblast; conditions: 10 µM, compound concentration 10 uM
Also: unitless GR value; below 1 slowed growth and below 0 cell loss.

SMILES | Growth Rate ([1]; 0 h, replicate number 2) | Growth Rate ([1]; 12 h, replicate number 2) | Growth Rate ([3]; 12 h, replicate number 1) | Growth Rate ([3]; 18 h, replicate number 1) | Growth Rate ([3]; 24 h, replicate number 2) | Growth Rate ([1]; 6 h, replicate number 2) | Growth Rate ([1]; 12 h, replicate number 1) | Growth Rate ([1]; 18 h, replicate number 1) | Growth Rate ([1]; 18 h, replicate number 2) | Growth Rate ([1]; 24 h, replicate number 1) | Growth Rate ([1]; 24 h, replicate number 2) | Growth Rate ([2]; 6 h, replicate number 1) | Growth Rate ([2]; 6 h, replicate number 2) | Growth Rate ([2]; 12 h, replicate number 1) | Growth Rate ([2]; 12 h, replicate number 2) | Growth Rate ([2]; 18 h, replicate number 2) | Growth Rate ([2]; 24 h, replicate number 2) | Growth Rate ([3]; 12 h, replicate number 2) | Growth Rate ([3]; 18 h, replicate number 2) | Growth Rate ([3]; 6 h, replicate number 1) | also measured
CCCCC(C)(O)C/C=C/[C@H]1[C@H](O)CC(=O)[C@@H]1CCCCCCC(=O)O (stereo partly drawn) [MISOPROSTOL ACID] | 0.49 | 0.94 | 0.98 | 0.86 | 0.97 |  |  |  |  |  |  |  |  |  |  |  |  |  |  |  | Growth Rate ([2]; 0 h, replicate number 1): -0.42; Growth Rate ([2]; 0 h, replicate number 2): -0.77; Growth Rate ([3]; 0 h, replicate number 1): -1; Growth Rate ([3]; 0 h, replicate number 2): -0.92
O=C(O)[C@]1(Cc2cccc(Nc3nccs3)n2)CC[C@@H](Oc2cccc(Cl)c2F)CC1 [MK-5108] |  | 0.14 | 0.18 | 0.17 | 0.2 | 0.59 | 0.56 | 0.21 | 0.25 | 0.37 | 0.47 | 0.9 | 0.73 | 0.39 | 0.16 | 0.35 | 0.61 | 0.85 | 0.26 |  | Growth Rate ([1]; 6 h, replicate number 1): 0.98; Growth Rate ([2]; 0 h, replicate number 1): 0.43; Growth Rate ([2]; 18 h, replicate number 1): 0.47; Growth Rate ([2]; 24 h, replicate number 1): 0.63; Growth Rate ([3]; 0 h, replicate number 2): -1; Growth Rate ([3]; 24 h, replicate number 1): 0.32
Cn1cc(-c2cnc3ccc4ccc(CS(=O)(=O)NCc5ccccn5)cc4c(=O)c3c2)cn1 [MK-8033] | 0.2 | 0.75 |  |  |  | 0.76 |  | 0.88 |  | 0.81 |  | 0.24 | 0 | 0.39 | 0.34 | 0.63 | 0.78 |  |  | 0.98 | Growth Rate ([1]; 6 h, replicate number 1): 0.9; Growth Rate ([2]; 18 h, replicate number 1): 0.56; Growth Rate ([2]; 24 h, replicate number 1): 0.71; Growth Rate ([3]; 0 h, replicate number 1): -1; Growth Rate ([3]; 6 h, replicate number 2): -0.01
COc1cc(C(=O)O)ncc1C#Cc1ccccc1NS(=O)(=O)c1cccc2c(N(C)C)ccnc12 [MSC-0516] | 0.61 | 0.75 |  |  | 0.93 | 0.86 | 0.92 | 0.8 | 0.91 | 0.89 | 0.9 |  |  |  |  |  |  | 0.77 | 0.99 |  | Growth Rate ([1]; 6 h, replicate number 1): 0.68; Growth Rate ([2]; 0 h, replicate number 1): -0.31; Growth Rate ([2]; 0 h, replicate number 2): -0.98; Growth Rate ([3]; 0 h, replicate number 1): -1; Growth Rate ([3]; 6 h, replicate number 2): 0.44
COc1ccc(OC(=O)N(CC(=O)O)Cc2ccc(OCCc3nc(-c4ccccc4)oc3C)cc2)cc1 [MURAGLITAZAR] | 0.98 | 0.94 | 0.76 | 0.79 | 0.97 | 0.71 |  |  |  |  | 0.87 | 0.89 | 0.07 | 0.94 | 0.42 | 0.51 | 0.5 | 0.56 | 0.72 | 0.85 | Growth Rate ([1]; 0 h, replicate number 1): -0.96; Growth Rate ([2]; 0 h, replicate number 2): -1; Growth Rate ([3]; 6 h, replicate number 2): 0.43
CC(C)N1CCN(Cc2cnc(-c3cc(-c4cccc5[nH]ccc45)cc4[nH]ncc34)o2)CC1 [NEMIRALISIB] | 0.94 | 0.64 | 0.04 | 0.27 | 0.85 | 0.36 | 0.83 |  | 0.64 |  | 0.6 | -0.37 | -0.48 | -0.09 | -0.01 | 0.15 | 0.32 | 0.83 | 0.75 | -0.06 | Growth Rate ([1]; 0 h, replicate number 1): -0.99; Growth Rate ([2]; 18 h, replicate number 1): 0.26; Growth Rate ([2]; 24 h, replicate number 1): 0.34; Growth Rate ([3]; 24 h, replicate number 1): 0.3
FC(F)(F)c1ccc(Nc2ncnc3cc(-c4ncccc4C(F)(F)F)ccc23)cc1 [NGD-8243] |  | 0.71 | -1 |  | 0.37 | 0.82 | 0.94 | 0.96 | 0.8 | 1 | 0.88 |  |  |  | 0.89 | 0.92 | 0.88 | -0.24 | 0.27 | 0.97 | Growth Rate ([3]; 6 h, replicate number 2): -1

— ChEMBL document CHEMBL5303304, “EUbOPEN Chemogenomics Library - IncuCyte” (2023)
